Laboratory results taken from article PMC7206119, “RIP1 inhibition blocks inflammatory diseases but not tumor growth or metastases” (Cell Death and Differentiation, 2019).

Key:
Assay in all cases: biochemical
DYRK1B = DYRK1B (Homo sapiens, UniProt Q9Y463); parameters: DiscoverX kinase panel, active-site competition binding (KINOMEscan type), percent of control at one concentration; settings: competition binding, percent of control
From the text: (§1) To investigate the potential therapeutic benefit of inhibiting RIP1, we developed GNE684 or (S)-N-((S)-7-methoxy-1-methyl-2-oxo-2,3,4,5-tetrahydro-1H-pyrido[3,4-b]azepin-3-yl)-5-phenyl-6,7-dihydro-5H-pyrrolo[1,2-b][1,2,4]triazole-2-carboxamide with cross-species potency against RIP1, exquisite kinase selectivity, and favorable pharmacological properties (Fig. 1a–h, S1, Tables S1 and S2, SI file 1). […] (Fig. 1b, S1, and Table S1). […] GNE684 inhibited human RIP1 potently in vitro, and mouse and rat RIP1 with slightly less potency (Fig. 1d). Accordingly, it inhibited TNF-induced necroptosis in human HT-29, mouse L929, or rat H9c2 cells (Fig. 1e). The cellular potency of GNE684 was confirmed in a human whole blood assay using TBZ ([compound left out], IAP antagonist BV6, and pan-caspase inhibitor zVAD) or LZ (LPS plus zVAD) to trigger necroptosis and the release of IL-1α and IL-1β (Fig. 1f).

LTK = LTK (Homo sapiens, UniProt P29376); parameters: DiscoverX kinase panel, active-site competition binding (KINOMEscan type), percent of control at one concentration; settings: competition binding, percent of control
From the text: as §1

STK33 [1] = molecular target: T1, STK33 (Homo sapiens, UniProt Q9BYT3); parameters: DiscoverX kinase panel, active-site competition binding (KINOMEscan type), percent of control at one concentration; settings: competition binding, percent of control
From the text: as §1

CamKII_alpha = molecular target: T2, CamKII_alpha (Homo sapiens, UniProt Q9UQM7); parameters: Thermo Fisher SelectScreen kinase panel: Z'-LYTE and Adapta activity, LanthaScreen binding
T2 construct: gene CAMK2A
Procedure: (§2) 5 88 GNE684 was tested in Thermo Fisher Scientific SelectScreen assay (Madison, WI) 89 against 221 representative kinases at a concentration of 10 µM, which is 476-fold greater than the Ki app 90 for GNE684 against human RIP1 in the RIP1 enzyme 91 assay. The kinase assays were carried out using Z'-LYTE and Adapta activity and 92 LanthaScreen binding assays (Thermo Fisher Scientific, Madison WI) following 93 protocols developed and performed by Thermo Fisher Scientific 94 (https://www.thermofisher.com/us/en/home/products-and-services/services/custom-95 services/screening-and-profiling-services/selectscreen-profiling-service/selectscreen-96 kinase-profiling-service.html). 97 GNE684 was also tested against 468 kinases in the KINOMEscan scanMAX kinase 98 binding assay panel at a concentration of 10 µM following protocols developed and 99 performed by DiscoverX (http://www.discoverx.com/kinase_profiling).

DYRK1A = DYRK1A (Homo sapiens, UniProt Q13627); parameters: Thermo Fisher SelectScreen kinase panel: Z'-LYTE and Adapta activity, LanthaScreen binding
Procedure: as §2

HIPK1 = HIPK1 (Homo sapiens, UniProt Q86Z02); parameters: Thermo Fisher SelectScreen kinase panel: Z'-LYTE and Adapta activity, LanthaScreen binding
Procedure: as §2

IKK-epsilon = molecular target: T3, IKK-epsilon (Homo sapiens, UniProt Q14164); parameters: Thermo Fisher SelectScreen kinase panel: Z'-LYTE and Adapta activity, LanthaScreen binding
T3 construct: gene IKBKE
Procedure: as §2

JNK3 = molecular target: T4, JNK3 (Homo sapiens, UniProt P53779); parameters: Thermo Fisher SelectScreen kinase panel: Z'-LYTE and Adapta activity, LanthaScreen binding
T4 construct: gene MAPK10
Procedure: as §2

LYN = LYN (Homo sapiens, UniProt P07948); parameters: Thermo Fisher SelectScreen kinase panel: Z'-LYTE and Adapta activity, LanthaScreen binding
Procedure: as §2

MARK1 = MARK1 (Homo sapiens, UniProt Q9P0L2); parameters: Thermo Fisher SelectScreen kinase panel: Z'-LYTE and Adapta activity, LanthaScreen binding
Procedure: as §2

MUSK = MUSK (Homo sapiens, UniProt O15146); parameters: Thermo Fisher SelectScreen kinase panel: Z'-LYTE and Adapta activity, LanthaScreen binding
Procedure: as §2

Mer = molecular target: T5, Mer (Homo sapiens, UniProt Q12866); parameters: Thermo Fisher SelectScreen kinase panel: Z'-LYTE and Adapta activity, LanthaScreen binding
T5 construct: gene MERTK
Procedure: as §2

NEK6 = NEK6 (Homo sapiens, UniProt Q9HC98); parameters: Thermo Fisher SelectScreen kinase panel: Z'-LYTE and Adapta activity, LanthaScreen binding
Procedure: as §2

NLK = NLK (Homo sapiens, UniProt Q9UBE8); parameters: Thermo Fisher SelectScreen kinase panel: Z'-LYTE and Adapta activity, LanthaScreen binding
Procedure: as §2

PKC_delta = molecular target: T6, PKC_delta (Homo sapiens, UniProt Q05655); parameters: Thermo Fisher SelectScreen kinase panel: Z'-LYTE and Adapta activity, LanthaScreen binding
T6 construct: gene PRKCD
Procedure: as §2

PRAK = molecular target: T7, PRAK (Homo sapiens, UniProt Q8IW41); parameters: Thermo Fisher SelectScreen kinase panel: Z'-LYTE and Adapta activity, LanthaScreen binding
T7 construct: gene MAPKAPK5
Procedure: as §2

STK33 [2] = molecular target: T1, STK33; parameters: Thermo Fisher SelectScreen kinase panel: Z'-LYTE and Adapta activity, LanthaScreen binding
Procedure: as §2

Srm = molecular target: T8, Srm (Homo sapiens, UniProt Q9H3Y6); parameters: Thermo Fisher SelectScreen kinase panel: Z'-LYTE and Adapta activity, LanthaScreen binding
T8 construct: gene SRMS
Procedure: as §2

p38-beta = molecular target: T9, p38-beta (Homo sapiens, UniProt Q15759); parameters: Thermo Fisher SelectScreen kinase panel: Z'-LYTE and Adapta activity, LanthaScreen binding
T9 construct: gene MAPK11
Procedure: as §2

T1 sequence (Q9BYT3 whole entry): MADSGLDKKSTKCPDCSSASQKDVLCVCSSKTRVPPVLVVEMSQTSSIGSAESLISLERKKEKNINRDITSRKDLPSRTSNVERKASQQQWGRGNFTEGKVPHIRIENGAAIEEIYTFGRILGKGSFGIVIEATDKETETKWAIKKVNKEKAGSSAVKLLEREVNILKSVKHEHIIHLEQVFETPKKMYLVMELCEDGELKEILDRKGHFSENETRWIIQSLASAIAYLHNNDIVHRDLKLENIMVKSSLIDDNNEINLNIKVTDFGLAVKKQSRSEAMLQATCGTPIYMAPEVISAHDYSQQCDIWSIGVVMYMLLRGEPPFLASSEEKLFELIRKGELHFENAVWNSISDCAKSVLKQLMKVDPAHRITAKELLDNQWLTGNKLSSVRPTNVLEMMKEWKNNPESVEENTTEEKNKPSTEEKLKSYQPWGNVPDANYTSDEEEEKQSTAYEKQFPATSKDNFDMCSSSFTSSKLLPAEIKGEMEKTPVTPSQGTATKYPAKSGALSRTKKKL
NEK6, sequence (Q9HC98 whole entry): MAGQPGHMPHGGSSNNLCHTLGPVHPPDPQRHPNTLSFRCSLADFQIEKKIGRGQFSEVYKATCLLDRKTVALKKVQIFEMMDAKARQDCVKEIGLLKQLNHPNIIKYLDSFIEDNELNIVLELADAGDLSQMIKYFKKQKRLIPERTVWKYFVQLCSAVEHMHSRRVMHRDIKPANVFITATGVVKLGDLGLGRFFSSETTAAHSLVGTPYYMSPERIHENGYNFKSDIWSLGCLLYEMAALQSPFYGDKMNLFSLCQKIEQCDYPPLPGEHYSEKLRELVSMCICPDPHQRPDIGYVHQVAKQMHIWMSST
LTK, sequence (P29376 whole entry): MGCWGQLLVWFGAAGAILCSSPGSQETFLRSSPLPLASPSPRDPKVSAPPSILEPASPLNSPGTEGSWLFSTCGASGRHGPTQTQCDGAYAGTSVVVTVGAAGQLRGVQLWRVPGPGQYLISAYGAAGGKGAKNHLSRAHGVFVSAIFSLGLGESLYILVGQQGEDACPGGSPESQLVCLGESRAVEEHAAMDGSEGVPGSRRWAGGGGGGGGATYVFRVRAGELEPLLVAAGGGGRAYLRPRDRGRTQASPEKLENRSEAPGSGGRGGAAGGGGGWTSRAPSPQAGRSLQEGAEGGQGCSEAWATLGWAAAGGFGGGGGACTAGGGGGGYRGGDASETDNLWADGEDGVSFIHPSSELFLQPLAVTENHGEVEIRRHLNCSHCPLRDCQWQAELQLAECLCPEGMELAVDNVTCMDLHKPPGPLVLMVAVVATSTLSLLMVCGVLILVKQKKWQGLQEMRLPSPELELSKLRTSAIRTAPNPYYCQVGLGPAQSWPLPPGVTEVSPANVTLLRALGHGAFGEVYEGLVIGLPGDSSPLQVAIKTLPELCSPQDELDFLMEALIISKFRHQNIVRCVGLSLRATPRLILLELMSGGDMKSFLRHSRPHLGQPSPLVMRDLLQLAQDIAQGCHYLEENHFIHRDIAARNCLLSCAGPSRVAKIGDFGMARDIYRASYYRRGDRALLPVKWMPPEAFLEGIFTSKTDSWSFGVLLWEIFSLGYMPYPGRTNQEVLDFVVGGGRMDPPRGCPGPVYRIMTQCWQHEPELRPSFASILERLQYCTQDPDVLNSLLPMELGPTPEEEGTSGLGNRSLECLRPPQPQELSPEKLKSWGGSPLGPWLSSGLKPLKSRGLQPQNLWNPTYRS
T6 sequence (Q05655 whole entry): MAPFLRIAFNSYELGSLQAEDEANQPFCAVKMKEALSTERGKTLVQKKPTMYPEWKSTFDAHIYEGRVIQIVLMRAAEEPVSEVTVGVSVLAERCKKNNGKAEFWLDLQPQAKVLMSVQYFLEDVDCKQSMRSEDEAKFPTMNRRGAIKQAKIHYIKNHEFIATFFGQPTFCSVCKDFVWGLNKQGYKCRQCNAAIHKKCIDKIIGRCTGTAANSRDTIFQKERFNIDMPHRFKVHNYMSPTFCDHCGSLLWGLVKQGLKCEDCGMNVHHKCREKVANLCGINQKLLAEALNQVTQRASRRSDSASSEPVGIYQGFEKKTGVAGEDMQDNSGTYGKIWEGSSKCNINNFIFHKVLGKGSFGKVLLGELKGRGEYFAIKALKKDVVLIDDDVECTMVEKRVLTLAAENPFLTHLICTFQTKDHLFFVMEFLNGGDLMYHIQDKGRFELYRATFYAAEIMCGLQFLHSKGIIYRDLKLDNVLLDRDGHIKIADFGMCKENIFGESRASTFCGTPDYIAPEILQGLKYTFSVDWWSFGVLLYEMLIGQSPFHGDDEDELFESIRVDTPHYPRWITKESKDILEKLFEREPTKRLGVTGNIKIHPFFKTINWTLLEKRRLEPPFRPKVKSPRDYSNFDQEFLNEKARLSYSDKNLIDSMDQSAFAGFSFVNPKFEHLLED
DYRK1B, sequence (Q9Y463 whole entry): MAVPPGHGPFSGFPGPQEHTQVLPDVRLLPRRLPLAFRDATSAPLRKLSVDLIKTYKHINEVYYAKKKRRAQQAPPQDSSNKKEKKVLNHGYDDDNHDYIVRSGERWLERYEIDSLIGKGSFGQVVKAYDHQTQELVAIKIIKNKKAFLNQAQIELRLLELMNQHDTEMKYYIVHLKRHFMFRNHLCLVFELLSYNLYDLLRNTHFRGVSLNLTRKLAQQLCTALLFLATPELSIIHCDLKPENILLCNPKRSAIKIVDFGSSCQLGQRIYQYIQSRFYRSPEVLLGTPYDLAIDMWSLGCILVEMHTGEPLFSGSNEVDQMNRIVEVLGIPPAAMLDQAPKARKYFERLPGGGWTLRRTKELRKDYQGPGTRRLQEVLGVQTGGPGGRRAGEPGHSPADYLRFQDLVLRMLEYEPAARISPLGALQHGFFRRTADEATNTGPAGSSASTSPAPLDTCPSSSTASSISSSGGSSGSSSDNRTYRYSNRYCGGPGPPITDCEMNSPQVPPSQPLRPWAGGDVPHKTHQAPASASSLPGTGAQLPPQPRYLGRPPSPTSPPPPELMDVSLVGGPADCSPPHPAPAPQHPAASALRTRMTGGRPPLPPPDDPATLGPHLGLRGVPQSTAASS
HIPK1, sequence (Q86Z02 whole entry): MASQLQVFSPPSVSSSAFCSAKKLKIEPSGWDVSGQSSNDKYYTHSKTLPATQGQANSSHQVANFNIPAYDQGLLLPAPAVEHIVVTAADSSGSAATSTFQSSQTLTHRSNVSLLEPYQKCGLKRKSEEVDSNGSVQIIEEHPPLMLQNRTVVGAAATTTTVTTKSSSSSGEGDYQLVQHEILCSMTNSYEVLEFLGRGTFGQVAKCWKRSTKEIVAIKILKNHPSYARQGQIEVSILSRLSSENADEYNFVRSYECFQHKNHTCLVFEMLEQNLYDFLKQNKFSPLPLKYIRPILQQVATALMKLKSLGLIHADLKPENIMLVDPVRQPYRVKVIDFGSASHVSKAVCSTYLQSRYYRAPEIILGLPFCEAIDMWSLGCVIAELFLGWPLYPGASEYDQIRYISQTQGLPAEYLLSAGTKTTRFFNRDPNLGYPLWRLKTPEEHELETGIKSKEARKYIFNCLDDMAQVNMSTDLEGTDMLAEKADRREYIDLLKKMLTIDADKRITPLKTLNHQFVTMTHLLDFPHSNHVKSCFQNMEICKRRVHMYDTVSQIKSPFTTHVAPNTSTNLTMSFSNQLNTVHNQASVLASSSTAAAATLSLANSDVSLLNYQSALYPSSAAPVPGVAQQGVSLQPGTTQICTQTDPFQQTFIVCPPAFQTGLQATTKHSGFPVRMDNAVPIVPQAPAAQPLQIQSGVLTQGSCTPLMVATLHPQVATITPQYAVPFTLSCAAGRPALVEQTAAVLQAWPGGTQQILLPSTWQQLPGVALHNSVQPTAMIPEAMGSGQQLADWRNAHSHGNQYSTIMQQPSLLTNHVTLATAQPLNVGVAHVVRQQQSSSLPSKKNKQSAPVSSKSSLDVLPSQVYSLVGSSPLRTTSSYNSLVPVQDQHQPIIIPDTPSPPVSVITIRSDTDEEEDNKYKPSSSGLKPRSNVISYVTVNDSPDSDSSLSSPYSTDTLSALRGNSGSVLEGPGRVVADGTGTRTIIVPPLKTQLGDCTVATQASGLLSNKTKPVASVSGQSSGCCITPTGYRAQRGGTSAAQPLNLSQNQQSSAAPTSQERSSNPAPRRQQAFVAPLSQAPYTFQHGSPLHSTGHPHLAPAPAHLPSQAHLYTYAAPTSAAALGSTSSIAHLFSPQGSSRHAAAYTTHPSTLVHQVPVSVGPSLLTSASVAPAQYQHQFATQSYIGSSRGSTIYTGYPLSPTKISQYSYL
LYN, sequence (P07948 whole entry): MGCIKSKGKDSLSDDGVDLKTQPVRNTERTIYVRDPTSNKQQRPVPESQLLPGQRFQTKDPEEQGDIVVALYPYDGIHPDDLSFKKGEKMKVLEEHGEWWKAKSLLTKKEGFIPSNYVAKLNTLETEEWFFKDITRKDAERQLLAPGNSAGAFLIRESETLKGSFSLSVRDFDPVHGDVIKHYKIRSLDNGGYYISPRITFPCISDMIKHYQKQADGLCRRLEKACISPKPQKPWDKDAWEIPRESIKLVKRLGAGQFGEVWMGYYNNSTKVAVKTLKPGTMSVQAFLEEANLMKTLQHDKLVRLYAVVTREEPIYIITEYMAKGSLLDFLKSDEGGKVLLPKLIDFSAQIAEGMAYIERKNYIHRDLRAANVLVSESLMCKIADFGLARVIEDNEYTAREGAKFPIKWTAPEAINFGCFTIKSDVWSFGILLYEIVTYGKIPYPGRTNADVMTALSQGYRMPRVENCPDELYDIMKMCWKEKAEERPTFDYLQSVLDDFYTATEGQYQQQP

COc1cc2c(cn1)N(C)C(=O)[C@@H](NC(=O)c1nc3n(n1)[C@H](c1ccccc1)CC3)CC2 [GNE684, (S)-N-((S)-7-methoxy-1-methyl-2-oxo-2,3,4,5-tetrahydro-1H-pyrido[3,4-b]azepin-3-yl)-5-phenyl-6,7-dihydro-5H-pyrrolo[1,2-b][1,2,4]triazole-2-carboxamide]
remaining binding at 10 µM (DYRK1B): 54%
remaining binding at 10 µM (LTK): 93%
remaining binding at 10 µM (STK33 [1]): 86%
inhibition at 10 µM (CamKII_alpha): 6.5%
inhibition at 10 µM (DYRK1A): 2%
inhibition at 10 µM (HIPK1): 0%
inhibition at 10 µM (IKK-epsilon): 3%
inhibition at 10 µM (JNK3): 3%
inhibition at 10 µM (LYN): 7%
inhibition at 10 µM (MARK1): 6.5%
inhibition at 10 µM (MUSK): 14%
inhibition at 10 µM (Mer): -5%
inhibition at 10 µM (NEK6): -2%
inhibition at 10 µM (NLK): -0.5%
inhibition at 10 µM (PKC_delta): 8%
inhibition at 10 µM (PRAK): 2.5%
inhibition at 10 µM (STK33 [2]): 0%
inhibition at 10 µM (Srm): 9%
inhibition at 10 µM (p38-beta): 4.5%
